From PubChem BioAssay (NCI)
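Interpolation was linear, between the two tested concentrations surrounding the appropriate level; five concentrations were tested over 48 hours in 96-well plates. TGI: total growth inhibition.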

Experiments:
Assay in all cases: growth of human tumour cells (NCI), 48 h
[1] = test system: HCC-2998 colon
[2] = test system: SK-OV-3 ovarian
[3] = test system: SF-268 CNS
[4] = test system: NCI-H23 lung
[5] = test system: UACC-257 melanoma
[6] = test system: HT29 colon
[7] = test system: HL-60(TB) leukemia
[8] = test system: SF-539 CNS
[9] = test system: SF-295 CNS
[10] = test system: OVCAR-8 ovarian
[11] = test system: EKVX NSCLC
[12] = test system: K-562 leukemia
[13] = test system: SK-MEL-5 melanoma
[14] = test system: MDA-MB-231 breast
[15] = test system: MCF7 breast
[16] = test system: T-47D breast

Compound	TGI [1] [µM]	TGI [2] [µM]	TGI [3] [µM]	TGI [4] [µM]	TGI [5] [µM]	TGI [6] [µM]	TGI [7] [µM]	TGI [8] [µM]	TGI [9] [µM]	TGI [10] [µM]	TGI [11] [µM]	TGI [12] [µM]	TGI [13] [µM]	TGI [14] [µM]	TGI [15] [µM]	TGI [16] [µM]
CC(=O)C(CN(CC(C)C)CC(C)C)C(c1ccccc1)c1c(O)c2ccccc2oc1=O (stereo not drawn)	> 100	> 100	> 100	> 100	> 100	> 100	> 100	> 100	> 100	> 100	> 100	–	–	–	–	–
COc1cccc(OC)c1C(=O)OCc1ccccc1	–	> 100	> 100	> 100	> 100	> 100	> 100	> 100	> 100	> 100	> 100	> 100	> 100	–	–	–
CSc1nc2c(c(=O)[nH]1)N=C(c1ccc([N+](=O)[O-])cc1)CC(c1ccccc1)N2 (stereo not drawn)	57.7	–	–	> 100	> 100	48	39.7	76.2	> 100	> 100	> 100	> 100	55.6	78.8	57.6	–
O=C(O)C12C3CCC(CC3)C1(C(=O)O)C1CCC2C1 (stereo not drawn)	> 100	> 100	> 100	> 100	> 100	> 100	> 100	> 100	> 100	> 100	–	> 100	> 100	> 100	> 100	> 100
O=C(O)c1ccc(C2COc3ccc(Cl)cc3C2)cc1 (stereo not drawn)	> 100	> 100	> 100	> 100	> 100	> 100	> 100	> 100	> 100	> 100	> 100	> 100	> 100	–	–	–
C=CC[C@@H](N)C(=O)N(C)[C@@H](C)[C@@H](O)c1ccccc1	–	> 100	> 100	> 100	> 100	–	> 100	> 100	> 100	> 100	–	–	> 100	> 100	–	> 100
COC(=O)[C@H](CCSC)NC(=O)N[C@H](C)c1ccccc1	> 100	> 100	> 100	> 100	> 100	> 100	> 100	> 100	> 100	> 100	> 100	> 100	> 100	> 100	> 100	–
O=C1CCCN1C(=O)CS(=O)(=O)c1ccccc1	> 100	> 100	> 100	> 100	> 100	> 100	–	–	> 100	> 100	–	> 100	> 100	> 100	–	> 100
CCOC(=O)/C(C=Nc1c(C)n(C)n(-c2ccccc2)c1=O)=C(/C)O	> 100	> 100	–	> 100	> 100	–	> 100	> 100	> 100	> 100	> 100	> 100	> 100	> 100	> 100	–
CN(N=O)C(=O)ON1C(=O)CCC1=O	> 100	> 100	> 100	> 100	> 100	> 100	> 100	> 100	–	> 100	> 100	> 100	> 100	–	–	–
Cc1ccc(/C=C/C(=O)C(C)(C)CN2CCCCC2)cc1	28.8	26.3	36.2	30.5	23.2	12	–	16.8	21.3	10.3	14.3	12	8.36	–	–	–
CC(=O)C1C(=O)C(=O)N(c2cccc([N+](=O)[O-])c2)C1=O (stereo not drawn)	> 100	> 100	> 100	> 100	> 100	> 100	> 100	> 100	> 100	> 100	> 100	–	> 100	> 100	> 100	–
NC(N)=NCCCC(NC(=O)c1cccc2c(=O)c3ccccc3[nH]c12)C(=O)O (stereo not drawn)	–	> 100	> 100	> 100	–	> 100	> 100	–	> 100	> 100	> 100	> 100	> 100	> 100	> 100	–
O=C(CSc1nnc(Cc2ccccc2)o1)Nc1ccccc1	> 100	> 100	> 100	> 100	> 100	> 100	> 100	> 100	> 100	> 100	–	> 100	> 100	–	–	–
O=c1nc(NC2CCCCO2)ccn1CCO (stereo not drawn)	–	> 100	> 100	–	> 100	> 100	> 100	> 100	> 100	> 100	> 100	> 100	> 100	–	–	–
CCCP1(=O)C=C(C)C(=C(Cl)Cl)C(C)=C1 (stereo not drawn)	92.4	–	88.3	85.5	> 100	> 100	54.7	> 100	> 100	> 100	> 100	> 100	49.1	–	–	–
CC(=O)CN(Cc1cc(C)c2c(c1)c1ccccc1n2Cc1ccccc1)S(=O)(=O)c1ccc(C)cc1	> 100	> 100	> 100	> 100	> 100	> 100	> 100	> 100	> 100	> 100	> 100	> 100	> 100	–	–	–
